Measured values taken from US9604974B2, “Compounds as modulator of JAK-STAT pathway, methods and applications thereof” (UNIVERSITY OF MYSORE, priority 2015, dated 2017).

Tests used:
[1] = system: STAT3 mediated transcription (α2-M promoter); experiment: α2-macroglobulin promoter luciferase reporter assay; format: cell-based, human; settings: HepG2, versus DMSO control
Protocol: Increased STAT3 activity is known to stimulate oncogenicity of hepatocellular carcinoma. Therefore, evaluation of the level of phosphorylated STAT3 (Y705) in HepG2 cells is carried out with siRNA-mediated deletion of STAT3 transcripts and/or exposure to CIMO, using Western Blot analysis. Experiments related to transient-transfection of STAT3 siRNA in HepG2 cells and STAT3 mediated Transcription activity are performed wherein 60-70% confluent of cells in a 6-well plate are transfected using FuGENE6 (Roche Molecular Biochemicals, Indianapolis, USA) transfection reagent. Luciferase assay is performed using Dual Luciferase Assay Kit (Promega Corp, Singapore). Transfections are carried out in triplicate using 1 μg of the appropriate α-2 macroglobulin luciferase reporter plasmid and empty vector per transfection along with 0.2 μg of Renilla expression plasmid as control for transfection efficiency. Luciferase activities are assayed 48 hours after transfection using the dual Luciferase Assay System (Promega Corp, Singapore)
In addition, assessment of STAT3 mediated transcriptional activity using an α2-macroglobulin (α2-M) promoter in HepG2 cells with either siRNA-mediated depletion of STAT3 expression or on exposure to CIMO is carried out as described above (FIG. 3B).

[2] = system: AGS (gastric cancer cell line); experiment: MTT anti-proliferative assay, AGS; format: cell-based; settings: Homo sapiens
Protocol: (§1) The anti-proliferative activity of Formula I compounds are studied on HepG2 cells using MTT assay. Briefly, the cells (2.5×10^4/ml) are incubated in triplicate in a 96-well plate in the presence or absence of different concentrations of compounds in a final volume of 0.2 ml up to 72 hours at 37° C. Thereafter, 20 μl MTT solution (5 mg/ml in PBS) is added to each well. After 2 hours of incubation at 37° C., 0.1 ml lysis buffer (20% SDS, 50% dimethyl-formamide) is added; incubation is continued overnight at 37° C.; and the optical density (OD) at 570 nm is measured by Tecan plate reader.
(§2) Additionally, Compound 1 is tested on a panel of six cell lines including Hep3B, PLC/PRF5, AGS (gastric cancer cell line), DU145 (prostrate cancer cell line), MDA MB231 (breast cancer cell line) and CAL27 (head and neck cancer cell line) cells.

STAT3 [3] = experiment: Immunocytochemistry of STAT3 nuclear translocation; format: cell-based, human; settings: HepG2, 10 μMol/L, about 6 hours
Protocol: HepG2 cells are plated in chamber slides in DMEM containing 10% FBS and allowed to adhere for about 24 hours. Following treatment with CIMO for about 6 hours, the cells are fixed with cold acetone for about 10 minutes, washed with PBS and blocked with 5% normal goat serum for about 1 hour. The cells are then incubated with rabbit polyclonal anti-human STAT3 Antibody (dilution, 1/100). After overnight incubation, the cells are washed and then incubated with goat anti-rabbit IgG-Alexa 594 ( 1/100) for about 1 hour and counterstained for nuclei with Hoechst (50 ng/ml) for about 5 minutes. Stained cells are mounted with mounting medium (Sigma-Aldrich) and analyzed under a fluorescence microscope (DP 70, Olympus, Tokyo, Japan).

HepG2 cells = experiment: Matrigel invasion assay; format: cell-based, human; settings: 5 μMol/L CIMO, presence and absence of CXCL12
Protocol: FIG. 5 depicts inhibition of cell migration by Compound 1 (CIMO) [A]. 70 μl HepG2 cells (5×10^5/mL) are seeded into each compartments of culture insert and insert is removed after about 12 hours. Width of the wound is measured initially and incubation is carried out with and without CIMO (5 μM, for about 8 hours) and CXCL12 (100 ng/mL, for about 24 hours). [B] Inhibition of cell invasion by Compound 1 (CIMO). HepG2 (2×10^5) cells are seeded in the top chamber of BD BioCoat™ Matrigel™. After pre-incubation with or without 5 μMol/L CIMO for about 8 hours, transwell chambers are placed into the wells of a 24-well plate which contains either only basal medium or basal medium with CXCL12 (100 ng/mL) for about 24 hours. After incubation, the chambers are assessed for cell invasion by staining with crystal violet.
In case of the invasion assay, the said assay is performed wherein BD (Biocoat™ Matrigel™) Invasion chamber with 8 μm pores in the light-tight polyethylene terephthalate membrane is taken and is coated with a reconstituted basement membrane gel (BD Biosciences). 2×10^5 cells are suspended in serum-free DMEM and seeded into the Matrigel Transwell chambers. The cells are incubated with CIMO for about 8 hours. […] The invading cells are then counted in five randomly selected areas under microscopic observation.

[4] = system: CAL27 (head and neck cancer cell line); experiment: MTT anti-proliferative assay, CAL27; format: cell-based; settings: Homo sapiens, CAL-27
Protocol: as §1, §2

STAT3 [5] = experiment: STAT3 DNA binding TransAM ELISA on nuclear extracts; format: cell-based, human; settings: HepG2 nuclear extracts, 10 μMol/L CIMO
Protocol: It is further investigated whether CIMO modulates STAT3 DNA binding activity in HepG2 cells, since it is known that STAT3 dimer translocates into the nucleus and binds to specific DNA nucleotide sequence to regulate gene expression. DNA binding assay is performed using a STAT3 DNA binding TransAM™ ELISA kit (Active Motif, Carlsbad, Calif., USA). Briefly, nuclear extracts (5 μg) from CIMO-treated cells are incubated in a 96-well plate coated with oligonucleotide containing the STAT3-specific DNA probe. Bound STAT3 is then detected by a specific primary antibody. An HRP-conjugated secondary antibody is subsequently applied to detect the bound primary antibody and provided the basis for colorimetric quantification. The enzymatic product is measured at 450 nm with a microplate reader (Tecan Systems, San Jose, Calif., USA). Specificity of this assay is tested by the addition of wild-type or mutated STAT3 consensus oligonucleotide in the competitive or mutated competitive control wells before the addition of the nuclear extracts.

**Q.** For `COc1ccc(C2CNC(c3cn(Cc4ccc(-c5ccccc5C#N)cc4)c4ccccc34)OC23CCCCC3)cc1` (stereo not drawn) [Compound 1], which α2-M promoter activity [1] is on record?
**A.** decreased α2-M promoter activity

**Q.** And the IC50 [2]?
**A.** 36.9 µM

**Q.** What about the “STAT3 in the nucleus” value (STAT3 [3]) of the same molecule?
**A.** significant decrease

**Q.** And the “inhibition of HepG2 cells motility (invasion)” value (HepG2 cells)?
**A.** more than 50%

**Q.** What about the IC50 [4] of the same molecule?
**A.** 27.1 µM

**Q.** What about the “binding of STAT3 to the DNA” value (STAT3 [5]) of the same molecule?
**A.** suppresses the binding of STAT3 to the DNA in a time-dependent manner
